Data published in BindingDB's records for doi:10.1021/acsmedchemlett.1c00082 (Bristol Myers Squibb, 2021).

Experiment: Antagonist activity at CCR2 in human peripheral blood mononuclear cells assessed as reduction in MCP1-induced chemotaxis measured after 30 mins by calcein-AM dye based fluorescence assay

IC50: 1.7 nM
Compound: CN[C@@H]1CC[C@H](N2CC[C@H](Nc3ncnc4ccc(C(F)(F)F)cc34)C2=O)[C@H](NC(C)=O)C1
